Measured values taken from patent US8575145B2, “Triazolopyridine compounds as PIM kinase inhibitors” (Array BioPharma Inc., priority 2008, dated 2013).
Where a name gives a salt, the structure may show the parent alone.

Key:
[1] = tested on: BaF2 BCR-Ab1 (Mouse pro-B-cell transformed with BCR-Ab1 fusion); experiment: Cellular Proliferation Assay, cell line H; type: cell-based; settings: BaF2 BCR-Ab1, 72 hours, CelltiterBlue, read-out: Cell Line H antiproliferative IC50
Experimental: (§1) The assay for determination of the antiproliferative activity of multiple Pim inhibitors in the JAK2-driven cell lines was conducted as follows. Cells were plated out to 96-well plates at an initial density of 10,000 cells/well in 95 pt. Compounds were prepared at […] in DMSO by conducting 3-fold serial dilutions to give a 10-point dosing curve having a high dose of 1000 μM. Aliquots (5 μt) of these dilutions were then transferred to the appropriate wells of the 96-well plates containing cells to yield a final DMSO concentration of 0.5%. The cells were then incubated with compound for 72 hours at 37° C., 5% CO2. CelltiterBlue reagent (Promega, Catalog #: G8080) was then added (20 μL/well) and incubated at 37° C., 5% CO2 for 1-8 hours depending on the cell line being analyzed. The plate was then quantified employing a fluorescence plate reader (Model: Gemini [Molecular Devices]; Settings: 560 nm (Ex)/590 nm (Em) 570 nm (cut-off) [CellTiter Blue Assay].
(§2) The values for each well were then converted to a percent of untreated control (POC). These POC values were then plotted as a function of compound concentration. A 4-parameter curve-fit analysis was performed for each compound dilution and an IC50 value was calculated from this curve.
(§3) Cell lines • A: PC3 (Androgen independent prostate cancer) • B: K562 (Ph+chronic myelogenous leukemia) • C: MV4-11 (Acute myelogenous leukemia) • D: BxPC3 (Pancreatic Cancer) • E: HepG2 (Hepatocellular Carcinoma) • F: BaF3 (Mouse pro-B-cell line) • G: BaF3 TEL-JAK2 (Mouse pro-B-cell transformed with TEL-JAK2 fusion) • H: BaF2 BCR-Ab1 (Mouse pro-B-cell transformed with BCR-Ab1 fusion)

[2] = tested on: CD4+ T cells; experiment: T Cell in vitro Functional Assay (B): IL-2 production; type: cell-based; settings: Mus musculus, anti-CD3/anti-CD28, 40 hours, ELISA
Experimental: (§4) The in vitro assays to assess the effects of the compounds of Examples 16, 18 and 26 on T cells were conducted as described in assays A, B, C and D below. CD4+ T cells were isolated from red blood cell-depleted splenocytes of C57B1/6J mice (Jackson Laboratories, catalog #000664) using CD4+ T cell isolation kit (Miltenyi, catalog #130-090-860).
(§5) In assay (A), purified CD4+ T cells were plated in 96 well plates at 90000 cells/well in 90 μL. A dilution series of the compounds of Examples 16, 18 and 26 were prepared at 100× the final concentration in DMSO and then diluted 10-fold into complete media (10× stocks). 10 μL of 10×compound stocks were added to appropriate wells of 96 well plates containing cells and incubated for 1 hour at 37° C., 5% CO2. The cell/compound mixtures were then transferred to a 96 well plate coated with anti-CD3 mAb (1 μg/mL; BD Pharmingen, catalog #553057) and soluble anti-CD28 mAb (1 μg/mL; BD Pharmingen, catalog #553294) was added. Plates were cultured at 37° C., 5% CO2 for 40 hours. 20 μL of the culture were removed for determination of proliferation using the CellTitre-Glo™ luminescent assay (Promega, Catalog #G7571) according to the manufacturer's protocol. The plate was quantified on a Packard TopCount instrument using luminescence protocol and data was analyzed using Prism software.
In assay (B), purified CD4+ cells were treated with compound and stimulated as described for assay (A). After 40 hours, supernatants were assayed for IL-2 using R&D duo set ELISA kits (catalog #DY402). ELISA plates were quantified relative to a standard curve using Molecular Devices Versamax Reader at […] and Softmax Pro software.
(§6) For each of assays A, B, C and D, the values for each well were converted to a percent of vehicle-treated (DMSO) control (POC). These POC values were plotted as a function of compound concentration and an IC50 calculated using a 4-parameter curve-fit analysis program.

[3] = target: GST-tagged recombinant full-length human PIM-2 (Homo sapiens (Human), UniProt Q9P1W9); experiment: PIM-2 Enzyme Assay; settings: read-out: PIM-2 IC50; 4 μM ATP, […] PIM-2
GST-tagged recombinant full-length human PIM-2, sequence (Q9P1W9 whole entry): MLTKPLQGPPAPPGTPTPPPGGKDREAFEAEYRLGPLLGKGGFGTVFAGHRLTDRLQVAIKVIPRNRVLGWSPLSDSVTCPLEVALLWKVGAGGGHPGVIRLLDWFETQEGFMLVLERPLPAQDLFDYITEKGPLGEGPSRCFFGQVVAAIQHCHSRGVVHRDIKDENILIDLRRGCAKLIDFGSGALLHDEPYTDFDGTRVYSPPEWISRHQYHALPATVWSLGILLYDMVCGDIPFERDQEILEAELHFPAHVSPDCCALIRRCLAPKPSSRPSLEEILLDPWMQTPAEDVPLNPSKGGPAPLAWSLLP

[4] = target: recombinant rat PIM-3 (Rattus norvegicus (Rat), UniProt O70444); experiment: PIM-3 Enzyme Assay; settings: read-out: PIM-3 IC50; 30 μM ATP, 0.5 nM PIM-3
Experimental: The amount of radiolabeled product is then measured by liquid scintillation counting. The final buffer conditions were as follows: 20 mM K^+MOPS, pH 7.4, 10 mM MgCl2, 0.005% Tween-20, 1 mM DTT. […] Incubations were carried out for 60 min at 22° C. and quenched with 75 μL of 200 mM H3PO4, filtered through a Whatman P81 plate and washed (1×200 μL and 5×100 μL ) with 200 mM H3PO4. Liquid scintillation cocktail (50 μL ) was then added per well, and the plate was counted for 30 s/well using a TopCount NXT.
One-μL aliquots of these were then transferred to the assay mixtures above to give a final concentration of DMSO of 2%. […] For each plate, percent of control (POC) values were calculated for each well. IC50's were estimated from the POC's using a standard 4-parameter logistic model. The IC50 is defined as the concentration of inhibitor at which the POC equals 50 for the fitted curve.

[5] = tested on: PC3 (Androgen independent prostate cancer); experiment: Cellular Proliferation Assay, cell line A; type: cell-based; settings: PC3, 72 hours, CelltiterBlue; read-out: Cell Line A antiproliferative IC50
Experimental: as §1, §2, §3

[6] = tested on: CD4+ T cells; experiment: T Cell in vitro Functional Assay (A): proliferation; type: cell-based; settings: Mus musculus, anti-CD3/anti-CD28, 40 hours
Experimental: as §4, §5, §6

[7] = tested on: BaF3 TEL-JAK2 (Mouse pro-B-cell transformed with TEL-JAK2 fusion); experiment: Cellular Proliferation Assay, cell line G; type: cell-based; settings: BaF3 TEL-JAK2, 72 hours, CelltiterBlue, read-out: Cell Line G antiproliferative IC50
Experimental: as §1, §2, §3

[8] = tested on: BaF3 (Mouse pro-B-cell line); experiment: Cellular Proliferation Assay, cell line F; type: cell-based; settings: BaF3, 72 hours, CelltiterBlue, read-out: Cell Line F antiproliferative IC50
Experimental: as §1, §2, §3

[9] = tested on: CD4+ T cells; experiment: T Cell in vitro Functional Assay (C): IL-4 production; type: cell-based; settings: Mus musculus; CD4+ T cells cultured with IL-4/anti-IFNγ, anti-CD3 restimulation 18 hours, ELISA
Experimental: as §4
In assay (C), 1000000 cells/mL of purified CD4+ T cells were mixed with 1 μg/mL anti-CD28, 10 ng/mL IL-4 (R&D Systems cat #404-ML-010/CF) and 2 μg/mL anti-IFNγ (R&D Systems cat #AB-485-NA) and placed into plates coated with 1 μg/mL anti-CD3. After 5 days, cells were harvested, washed and incubated overnight at 37° 5% CO2. The following day, 50,000 cells were plated into each well of a 96 well plate. A dilution series of compounds were prepared at 200× the final concentration in DMSO, then 10×stocks were prepared by dilution in cell culture media. 10 μL of 10× stocks were added to the cells in the 96 well plate and incubated for 2 hours at 37° C., 5% CO2. Cell/compound mixtures were then transferred to well coated with 0.1 μg anti-CD3 and incubated at 37° C., 5% CO2. Culture supernatants were removed 18 hours later and tested for IL-4 levels by ELISA (R&D Systems catalog #DY404). ELISA plates were quantified relative to a standard curve using Molecular Devices Versamax Reader at […] and Softmax Pro software.
as §6

[10] = tested on: K562 (Ph+chronic myelogenous leukemia); experiment: Cellular Proliferation Assay, cell line B; type: cell-based; settings: Homo sapiens; K562, 72 hours, CelltiterBlue; read-out: Cell Line B antiproliferative IC50
Experimental: as §1, §2, §3

Structure (SMILES)	IC50 [1] [nM]	IC50 [2] [nM]	IC50 [3] [nM]	IC50 [4] [nM]	IC50 [5] [nM]	IC50 [6] [nM]	IC50 [7] [nM]	IC50 [8] [nM]	IC50 [9] [nM]	IC50 [10] [nM]
F[C@@H]1CNCCC1Oc1cccc2ccc(-c3nnc4ccccn34)nc12 (stereo in doubt) [Example 26, 2-([1,2,4]triazolo[4,3-a]pyridin-3-yl)-8-((cis)-3-fluoropiperidin-4-yloxy)quinoline dihydrochloride]	< 2000	≤ 5000	137	9	< 5000	≤ 5000	< 2000	< 2000	≤ 5000	< 10000
c1cc(OCC2CCCNC2)c2nc(-c3nnc4ccccn34)ccc2c1 (stereo not drawn) [Example 16, 2-([1,2,4]Triazolo[4,3-a]pyridin-3-yl)-8-(piperidin-3-ylmethoxy)quinoline]	< 5000	≤ 1000	169	4	< 5000	≤ 1000	< 2000	< 2000	≤ 1000	< 10000
CC(C)(CN)COc1cccc2ccc(-c3nnc4ccccn34)nc12 [Example 18, 3-(2-([1,2,4]Triazolo[4,3-a]pyridin-3-yl)quinolin-8-yloxy)-2,2-dimethylpropan-1-amine]	< 2000	≤ 1000	49	2	< 2000	≤ 1000	< 2000	< 2000	≤ 1000	< 5000
